The text below walks through data of patent US20260216103A1, “USE OF LONG-ACTING ß2AR AGONIST IN PREPARATION OF DRUGS FOR TREATING CANCERS” (HONG KONG SXMETEROL PHARMACEUTICAL CO., LIMITED, priority 2023, published 2026).

Where a name gives a salt, the structure may show the parent alone.

The subject of test [1] is MDA-MB-231, SW620, CT-26, H460, H446, B16F10, A375, CAL-27, RT4, SU-DHL-8, PC-3, Hep G2, 786-O, SNU-1, CFPAC-1, PANC-1, SF126, Hela. The following applies: 1 μM, 3 μM, or 10 μM, 7 d; FIG. 28. Here is the method: After 7 d, tumor spheres in the control group and the AT treated group were counted and photographed, respectively.
Using a One-way ANOVA analysis method and Fisher's LSD test as a post test, statistical differences in the number of tumor spheres in all the groups were analyzed (*, P<0.05; **, P<0.01; ***, P<0.001; ****, P<0.0001; n.s., no significant difference).

Test [2] concerns MDA-MB-231, SW620, CT-26, H460, H446, B16F10, A375, CAL-27, KYSE-150, RT4, SU-DHL-8, PC-3, Hep G2, SKOV3, 786-O, CFPAC-1, PANC-1, SF126, U2OS, Hela. In words: tumor sphere formation assays of a variety of cancer cells (Example 3, BH). The following applies: 1 μM, 3 μM, or 10 μM, 7 d; FIG. 29. The test is classed as cell-based.
Description: After 7 d, tumor spheres in the control group and the BH treated group were counted and photographed, respectively.
(§1) Using a One-way ANOVA analysis method and Fisher's LSD test as a post test, statistical differences in the number of tumor spheres in all the groups were analyzed (*, P<0.05; **, P<0.01; ***, P<0.001; ****, P<0.0001).
Test [3] has as its system cancer stem cells of 17 cancers. Nature of the test: tumor sphere formation assays of cancer cells, summary over 17 cancers. The following applies: summary of Examples 1-9; agonist used alone. The test is classed as cell-based. An excerpt: As a gold standard for detecting the self-renewal capability of cancer stem cells in vitro, a tumor sphere formation assay may detect individual cancer stem cell that continuously self-renew in a conditioned medium and form tumor spheres consisting of multiple cells. This in vitro experiment is often used to test the responsiveness of clinical patients to anticancer drugs, and guide in vivo medication of the clinical patients.
Cancer stem cells have self-renewal capability, which determines the initiation and progression of cancers. As a gold standard for detecting the self-renewal capability of cancer stem cells in vitro, a tumor sphere formation assay may detect individual cancer stem cells that continuously self-renew in a conditioned medium and form tumor spheres consisting of multiple cells.

In test [4] the test system is MDA-MB-231, SW620, CT-26, H460, H446, B16F10, A375, CAL-27, KYSE-150, RT4, SU-DHL-8, PC-3, Hep G2, 786-O, CFPAC-1, PANC-1, Hela. Nature of the test: tumor sphere formation assays of a variety of cancer cells (Example 4, CH). In kind it is cell-based. The conditions noted are these: 1 μM, 3 μM, or 10 μM, 7 d; FIG. 30.
Description: After 7 d, tumor spheres in the control group and the CH treated group were counted and photographed, respectively.
as §1
For test [5] the test system is unchanged. Nature of the test: tumor sphere formation assays of a variety of cancer cells (Example 5, FH). The following applies: 1 μM, 3 μM, or 10 μM, 7 d; FIG. 31. The test is classed as cell-based.
Description: After 7 d, tumor spheres in the control group and the FH treated group were counted and photographed, respectively.
as §1
Another test relates to chronic myeloid leukemia. The following applies: patients, first-line treatment for chronic myeloid leukemia; cited from earlier work.
Test [6] concerns MDA-MB-231, SW620, CT-26, H460, H1299, LLC, H446, B16F10, A375, CAL-27, KYSE-150, RT4, SU-DHL-8, PC-3, Hep G2, G-401, SNU-1, CFPAC-1, PANC-1, SF126, U2OS, Hela. Nature of the test: tumor sphere formation assays of a variety of cancer cells (Example 6, IM). The test is classed as cell-based. The conditions noted are these: 1 μM, 3 μM, or 10 μM, 7 d; FIG. 32.
Excerpt: After 7 d, tumor spheres in the control group and the IM treated group were counted and photographed, respectively.
The subject of test [7] is MDA-MB-231, SW620, CT-26, H460, H446, B16F10, A375, CAL-27, KYSE-150, RT4, SU-DHL-8, PC-3, Hep G2, SKOV3, G-401, CFPAC-1, PANC-1, SF126, U2OS, Hela. Nature of the test: tumor sphere formation assays of a variety of cancer cells (Example 7, OH). In kind it is cell-based. The following applies: 1 μM, 3 μM, or 10 μM, 7 d; FIG. 33.
Excerpt: According to culture conditions in Table 1-Table 17 of Example 1, breast cancer cells MDA-MB-231 (A), colorectal cancer cells SW620 (B), colorectal cancer cells CT-26 (C), lung cancer cells H460 (D), lung cancer cells H446 (E), melanoma cells B16F10 (F), melanoma cells A375 (G), head and neck cancer cells CAL-27 (H), esophageal cancer cells KYSE-150 (I), bladder cancer cells RT4 (J), hematoma cells SU-DHL-8 (K), prostate cancer cells PC-3 (L), liver cancer cells Hep G2 (M), ovarian cancer cells SKOV3 (N), kidney cancer cells G-401 (O), pancreatic cancer cells CFPAC-1 (P), pancreatic cancer cells PANC-1 (Q), brain cancer cells SF126 (R), osteosarcoma cells U2OS(S), and cervical cancer cells Hela (T) were subjected to tumor sphere formation assays, and treated with olodaterol hydrochloride (OH) at concentrations of 1 μM, 3 μM, or 10 μM, respectively. After 7 d, tumor spheres in the control group and the OH treated group were counted and photographed, respectively.
as §1
The test system of test [8] is MDA-MB-231, SW620, CT-26, H460, H1299, LLC, H446, B16F10, A375, CAL-27, KYSE-150, RT4, SU-DHL-8, PC-3, Hep G2, G-401, 786-O, SNU-1, CFPAC-1, SF126, Hela. Nature of the test: tumor sphere formation assays of a variety of cancer cells (Example 8, TH). The following applies: 1 μM, 3 μM, or 10 μM, 7 d; FIG. 34. The test is classed as cell-based.
Excerpt: After 7 d, tumor spheres in the control group and the TH treated group were counted and photographed, respectively.
The subject of test [9] is MDA-MB-231, SW620, CT-26, H460, H1299, LLC, H446, B16F10, A375, CAL-27, KYSE-150, RT4, SU-DHL-8, PC-3, Hep G2, G-401, 786-O, SNU-1, CFPAC-1, PANC-1, SF126 …. In words: tumor sphere formation assays of a variety of cancer cells (Example 9, VT). In kind it is cell-based. The conditions noted are these: 1 μM, 3 μM, or 10 μM, 7 d; FIG. 35.
Excerpt: After 7 d, tumor spheres in the control group and the VT treated group were counted and photographed, respectively.

For the compound `COc1ccc(C[C@@H](C)NC[C@H](O)c2ccc(O)c(NC=O)c2)cc1` [arformoterol tartrate], the “number of tumor spheres (inhibition of tumor sphere formation)” value in test [1] is “has therapeutic effects on a variety of types of cancer in a concentration dependent manner”. On to `CN(C)C(=O)Oc1cc(OC(=O)N(C)C)cc(C(O)CNC(C)(C)C)c1` (stereo not shown) [bambuterol hydrochloride], for which, in test [2], the “number of tumor spheres (inhibition of tumor sphere formation)” value is on record as “has therapeutic effects on a variety of types of cancer in a concentration dependent manner”. Moreover, the “self-renewal capability of cancer stem cells” value (“self-renewal capability” below) in [3] is listed as “can significantly inhibit the self-renewal capability of cancer stem cells of 17 cancers”. As for `CC(C)(C)NCC(O)c1cc(Cl)c(N)c(Cl)c1` (stereo not shown) [clenbuterol hydrochloride], the “number of tumor spheres (inhibition of tumor sphere formation)” value in test [4] is “has therapeutic effects on a variety of types of cancer in a concentration dependent manner”. Also, in [3], the “self-renewal capability” value was “can significantly inhibit the self-renewal capability of cancer stem cells of 17 cancers”. For `COc1ccc(C[C@@H](C)NC[C@H](O)c2ccc(O)c(NC=O)c2)cc1.COc1ccc(C[C@@H](C)NC[C@H](O)c2ccc(O)c(NC=O)c2)cc1.O=C(O)/C=C/C(=O)O` [formoterol hemifumarate], the “number of tumor spheres (inhibition of tumor sphere formation)” value in test [5] is “has therapeutic effects on a variety of types of cancer in a concentration dependent manner”. In test [3], the “self-renewal capability” value is listed as “can significantly inhibit the self-renewal capability of cancer stem cells of 17 cancers”. In the case of `Cc1ccc(NC(=O)c2ccc(CN3CCN(C)CC3)cc2)cc1Nc1nccc(-c2cccnc2)n1` [imatinib, Imatinib], the “overall 10-year survival rate” value with chronic myeloid leukemia is reported as 83.3%.

For `CCc1cc2c(cc1CC)CC(NC[C@H](O)c1ccc(O)c3[nH]c(=O)ccc13)C2` [indacaterol maleate], the “number of tumor spheres (inhibition of tumor sphere formation)” value in test [6] is “has therapeutic effects on a variety of types of cancer in a concentration dependent manner”. In addition, the “self-renewal capability” value in test [3] was “can significantly inhibit the self-renewal capability of cancer stem cells of 17 cancers”.

On to `COc1ccc(CC(C)(C)NC[C@H](O)c2cc(O)cc3c2OCC(=O)N3)cc1` [olodaterol hydrochloride], for which the “number of tumor spheres (inhibition of tumor sphere formation)” value in test [7] is “has therapeutic effects on a variety of types of cancer in a concentration dependent manner”. The “self-renewal capability” value in test [3] was “can significantly inhibit the self-renewal capability of cancer stem cells of 17 cancers”. With `CC(C)(C)NCC(O)c1ccccc1Cl` (stereo not shown) [tulobuterol hydrochloride], in test [8], the “number of tumor spheres (inhibition of tumor sphere formation)” value is “has therapeutic effects on a variety of types of cancer in a concentration dependent manner”. Moreover, the “self-renewal capability” value in test [3] is given as “can significantly inhibit the self-renewal capability of cancer stem cells of 17 cancers”. On to `O=C(O)C(c1ccccc1)(c1ccccc1)c1ccccc1.OCc1cc([C@@H](O)CNCCCCCCOCCOCc2c(Cl)cccc2Cl)ccc1O` [vilanterol trifenate], for which, in test [9], the “number of tumor spheres (inhibition of tumor sphere formation)” value is on record as “has therapeutic effects on a variety of types of cancer in a concentration dependent manner”. Moreover, in test [3], the “self-renewal capability” value is “can significantly inhibit the self-renewal capability of cancer stem cells of 17 cancers”.
